The text below walks through data of patent EP4813463A2, “TYK2 INHIBITORS AND COMPOSITIONS AND METHODS THEREOF” (Lynk Pharmaceuticals Co. Ltd., priority 2023, dated 2024).

Assay [1] has as its system Ba/F3-FL-TYK2-P760L cells. Kind of assay: Anti-proliferative assay in engineered Ba/F3 cells (Cell-Titer Glo, 72 h). The assay is classed as cell-based. Conditions: Mus musculus, concentration that causes 50% growth inhibition, read-out: Baf3-FL-T2P760L. The procedure, abridged:
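Ba/F3 cells carrying Tel-dimerization/JAK kinase fusion, IL-3-independent, in RPMI-1640 + 10% FBS; 9-point 3-fold dilutions from 20 µM (0.1% DMSO) added after 24 h, 72 h at 37 °C. Viability by Cell-Titer Glo ATP luminescence; % inhibition versus DMSO cells, blank-corrected, giving IC50.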

In another assay the target is T1, JAK1-JH2 domain (Homo sapiens, UniProt P23458).
T1 construct: JAK1-JH2 domain or TYK2-JH2 domain enzyme in assay buffer
T1 sequence (P23458 583-855 limits assumed): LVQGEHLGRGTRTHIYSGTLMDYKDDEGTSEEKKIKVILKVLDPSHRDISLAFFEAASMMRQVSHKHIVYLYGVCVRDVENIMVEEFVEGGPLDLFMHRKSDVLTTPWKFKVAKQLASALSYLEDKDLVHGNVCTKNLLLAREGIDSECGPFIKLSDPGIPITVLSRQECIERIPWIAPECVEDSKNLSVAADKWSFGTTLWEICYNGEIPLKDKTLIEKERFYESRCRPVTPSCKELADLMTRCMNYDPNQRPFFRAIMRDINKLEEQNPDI
In words: Binding activity test for JH2 domain of JAK1 (Tb-antibody/tracer FRET). The procedure:
Binding Activity test for JH2 domain of JAK1 and TYK2 […] Add 8μL/well in echo source plate, echo will add 75nL/well with 3-fold serial dilution for 11 points in assay plate. 75nL DMSO for high control and low control. […] For low control, add 5μL/well assay buffer. And then spin down at 1000rpm and centrifuge for 30 seconds. After enzyme system prepared, add 5μL of Tb-antibody solution into each well of assay plate. Spin down at 1000 rpm and centrifuge for 30sec. After Tb-antibody added, also add 5μL of tracer into the assay plate. Spin down at 1000rpm and centrifuge for 30sec. Incubate for […] at 25°C firstly and then continue to incubate the plate at 4°C overnight. Read by envision in FRET mode. The Luminescence value was recorded by a multi-label reader Envision (PerkinElmer). […] Table 2. IC50 on JH2 domain activity (nM)

The target of a further assay is T2, TYK2-JH2 domain (Homo sapiens, UniProt P29597).
T2 construct: JAK1-JH2 domain or TYK2-JH2 domain enzyme in assay buffer
T2 sequence (P29597 589-875 limits assumed): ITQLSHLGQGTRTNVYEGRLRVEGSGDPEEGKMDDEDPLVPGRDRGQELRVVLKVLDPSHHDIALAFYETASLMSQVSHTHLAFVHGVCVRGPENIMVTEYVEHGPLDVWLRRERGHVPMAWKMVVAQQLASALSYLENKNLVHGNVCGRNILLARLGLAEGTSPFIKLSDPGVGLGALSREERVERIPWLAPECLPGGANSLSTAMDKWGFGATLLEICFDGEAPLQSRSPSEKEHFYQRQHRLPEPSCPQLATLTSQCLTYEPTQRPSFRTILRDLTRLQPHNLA
Kind of assay: Binding activity test for JH2 domain of TYK2 (Tb-antibody/tracer FRET). The procedure, abridged: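 Competitive TR-FRET binding: compounds dispensed as an 11-point 3-fold dilution series, then Tb-labelled antibody and tracer added to the JH2 protein system. Incubated at 25°C, then overnight at 4°C; FRET signal read on Envision and IC50 (nM) derived.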

Setting [2] is: BaF3, 72 h, 72 h compound treatment.
The mark [3] stands for this setting: JH2 domain enzyme; 60 min at 25°C, then 4°C overnight; read-out: JAK1 JH2 Binding IC50.
Where [4] appears, read: JH2 domain enzyme; 60 min at 25°C, then 4°C overnight; read-out: TYK2 JH2 Binding IC50.
[5] abbreviates: ratio of JAK1 JH2 to TYK2 JH2 binding IC50.

pIC50: −log10 of the molar value. Where two headings read alike, the source gives them in different places.

As for `[2H]C([2H])([2H])NC(=O)c1cnc(NC(=O)C2CC2)cc1Nc1cnn2ccc(COC)c(OC)c12` [Example 16, 6-(Cyclopropanecarboxamido)-4-((4-methoxy-5-(methoxymethyl)pyrazolo[1,5-a]pyridin-3-yl)amino)-N-(methyl-d3)nicotinamide], the results for the pIC50 (in assay [1] (setting [2]); at JAK1-JH2 domain (setting [3]); on TYK2-JH2 domain (setting [4])) were 7.06, 7.85 and 9.66, respectively. Moreover, the JAK1/TYK2 selectivity at TYK2-JH2 domain (setting [5]) is recorded as 64.0.

Turning to `[2H]C([2H])([2H])NC(=O)c1cnc(NC(=O)C2CC2)cc1Nc1cnn2ccc([C@H](OC([2H])([2H])[2H])C(F)(F)F)c(OC)c12` [Example 28, (S)-6-(cyclopropanecarboxamido)-4-((4-methoxy-5-(2,2,2-trifluoro-1-(methoxy-d3)ethyl)pyrazolo[1,5-a]pyridin-3-yl)amino)-N-(methyl-d3)nicotinamide], the values for the pIC50 (in assay [1] (setting [2]); at JAK1-JH2 domain (setting [3]); on TYK2-JH2 domain (setting [4])) were 7.97, 8.13 and 10.14, respectively. Moreover, the JAK1/TYK2 selectivity on TYK2-JH2 domain (setting [5]) turned out to be 102.5.

In the case of `[2H]C([2H])([2H])NC(=O)c1cnc(NC(=O)C2CC2)cc1Nc1cnn2ccc(C(C)(C)O)c(C)c12` [Example 34, 6-(Cyclopropanecarboxamido)-4-((5-(2-hydroxypropan-2-yl)-4-methylpyrazolo[1,5-a]pyridin-3-yl)amino)-N-(methyl-d3)nicotinamide], the figures for the pIC50 (in assay [1] (setting [2]); at JAK1-JH2 domain (setting [3]); on TYK2-JH2 domain (setting [4])) were below 5.30, below 6.53 and 6.79, respectively. The JAK1/TYK2 selectivity on TYK2-JH2 domain (setting [5]) is listed as above 1.85.

In the case of `[2H]C([2H])([2H])NC(=O)c1cnc(NC(=O)[C@@H]2C[C@@H]2F)cc1Nc1cnn2cnc(OC)c(OC)c12` [Example 36, 4-((4,5-Dimethoxypyrazolo[1,5-c]pyrimidin-3-yl)amino)-6-((1S,2S)-2-fluorocyclopropane-1-carboxamido)-N-(methyl-d3)nicotinamide], the pIC50 in assay [1] (setting [2]) was 5.75; at JAK1-JH2 domain (setting [3]) it was 6.59; at TYK2-JH2 domain (setting [4]), 8.34. In addition, on TYK2-JH2 domain (setting [5]), the JAK1/TYK2 selectivity is on record as 56.0.

Take `[2H]C([2H])([2H])NC(=O)c1cnc(NC(=O)[C@@H]2C[C@@H]2F)cc1Nc1cnn2cnc(C(O)C(F)(F)F)c(OC)c12` (stereo partly drawn) [Example 39, 6-((18,25)-2-fluorocyclopropane-1-carboxamido)-4-((4-methoxy-5-(2,2,2-trifluoro-1-hydroxyethyl)pyrazolo[1,5-c]pyrimidin-3-yl)amino)-N-(methyl-d3)nicotinamide]: the pIC50 in assay [1] (BaF3, 72 h compound treatment) was 6.46; on JAK1-JH2 domain (read-out: JAK1 JH2 Binding IC50; JH2 domain enzyme; 60 min at 25°C, then 4°C overnight), below 6.53; at TYK2-JH2 domain (read-out: TYK2 JH2 Binding IC50; JH2 domain enzyme; 60 min at 25°C, then 4°C overnight), 9.25. Moreover, the JAK1/TYK2 selectivity at TYK2-JH2 domain (setting [5]) was above 532.1.

Take `[2H]C([2H])([2H])NC(=O)c1cnc(NC(=O)C2CC2)cc1Nc1cnn2ccccc12` [Example 40, 6-(Cyclopropanecarboxamido)-N-(methyl-d3)-4-(pyrazolo[1,5-a]pyridin-3-ylamino)nicotinamide]: the pIC50 is below 5.30 in assay [1] (setting [2]), below 6.53 at JAK1-JH2 domain (setting [3]) and 6.73 at TYK2-JH2 domain (setting [4]). In addition, the JAK1/TYK2 selectivity on TYK2-JH2 domain (setting [5]) is above 1.6.

In the case of `[2H]C([2H])([2H])NC(=O)c1cnc(NC(=O)C2CC2)cc1Nc1cnn2ccc(C(O)C(F)(F)F)cc12` (stereo not drawn) [Example 41, 6-(Cyclopropanecarboxamido)-N-(methyl-d3)-4-((5-(2,2,2-trifluoro-1-hydroxyethyl)pyrazolo[1,5-a]pyridin-3-yl)amino)nicotinamide], the pIC50 in assay [1] (setting [2]) was below 5.30; on JAK1-JH2 domain (setting [3]) it was below 6.53; at TYK2-JH2 domain (setting [4]), 7.33. Also, at TYK2-JH2 domain (setting [5]), the JAK1/TYK2 selectivity is above 6.37.

As to `[2H]C([2H])([2H])NC(=O)c1cnc(NC(=O)C2CC2)cc1Nc1cnn2cccc(OC)c12` [Example 44, 6-(Cyclopropanecarboxamido)-4-((4-methoxypyrazolo[1,5-a]pyridin-3-yl)amino)-N-(methyl-d3)nicotinamide], the pIC50 in assay [1] (setting [2]) is 6.45; at JAK1-JH2 domain (setting [3]), 7.22; on TYK2-JH2 domain (setting [4]) it was 8.55. Moreover, at TYK2-JH2 domain (setting [5]), the JAK1/TYK2 selectivity was determined as 21.5.

As for `COC(=O)c1cnc(NC(=O)C2CC2)cc1Nc1nn(C)c2ccc(C(OC)C(F)(F)F)c(OC)c12` (stereo not drawn) [Example 45, Methyl 6-(cyclopropanecarboxamido)-4-((4-methoxy-1-methyl-5-(2,2,2-trifluoro-1-methoxyethyl)-1H-indazol-3-yl)amino)nicotinate], the pIC50 is 8.07 in assay [1] (setting [2]), 7.19 at JAK1-JH2 domain (setting [3]) and 9.68 at TYK2-JH2 domain (setting [4]). Further, on TYK2-JH2 domain (setting [5]), the JAK1/TYK2 selectivity is reported as 307.51.

With `COC(=O)c1cnc(NC(=O)C2CC2)cc1Nc1nn(C)c2ccc([C@@H](OC)C(F)(F)F)c(OC)c12` [Example 45A, Methyl (R)-6-(cyclopropanecarboxamido)-4-((4-methoxy-1-methyl-5-(2,2,2-trifluoro-1-methoxyethyl)-1H-indazol-3-yl)amino)nicotinate], the pIC50 in assay [1] (setting [2]) is 6.96; at JAK1-JH2 domain (setting [3]), below 6.53; at TYK2-JH2 domain (setting [4]) it was 9.08. Moreover, the JAK1/TYK2 selectivity on TYK2-JH2 domain (setting [5]) is above 361.38.

In the case of `[2H]C([2H])([2H])NC(=O)c1cnc(NC(=O)C2CC2)cc1Nc1nn(C)c2ccc(C(OC)C(F)(F)F)c(OC)c12` (stereo not drawn) [Example 46, 6-(Cyclopropanecarboxamido)-4-((4-methoxy-1-methyl-5-(2,2,2-trifluoro-1-methoxyethyl)-1H-indazol-3-yl)amino)-N-(methyl-d3)nicotinamide], the figures for the pIC50 (in assay [1] (setting [2]); on JAK1-JH2 domain (setting [3]); at TYK2-JH2 domain (setting [4])) were 9.21, 8.17 and 9.95, respectively. In addition, the JAK1/TYK2 selectivity on TYK2-JH2 domain (setting [5]) was determined as 60.31.

`[2H]C([2H])([2H])O[C@@H](c1ccn2ncc(Nc3cc(NC(=O)C4CC4)ncc3C(=O)OC)c2c1OC)C(F)(F)F` [Example 47, Methyl (S)-6-(cyclopropanecarboxamido)-4-((4-methoxy-5-(2,2,2-trifluoro-1-(methoxy-d3)ethyl)pyrazolo[1,5-a]pyridin-3-yl)amino)nicotinate]: the pIC50 in assay [1] (setting [2]) is 7.15; at JAK1-JH2 domain (setting [3]), 7.33; at TYK2-JH2 domain (setting [4]), 9.66. Further, the JAK1/TYK2 selectivity at TYK2-JH2 domain (setting [5]) was 210.20.

For the compound `COC(=O)c1cnc(NC(=O)C2CC2)cc1Nc1nn(C)c2ccc([C@@H](O)C(F)(F)F)c(OC)c12` [Example 48B, Methyl (R)-6-(cyclopropanecarboxamido)-4-((4-methoxy-1-methyl-5-(2,2,2-trifluoro-1-hydroxyethyl)-1H-indazol-3-yl)amino)nicotinate], the pIC50 is 6.79 in assay [1] (setting [2]), 7.07 on JAK1-JH2 domain (setting [3]) and 8.77 at TYK2-JH2 domain (setting [4]). Besides, the JAK1/TYK2 selectivity at TYK2-JH2 domain (setting [5]) was found to be 51.13.

For the compound `[2H]C([2H])([2H])O[C@H](c1ccc2c(c(Nc3cc(NC(=O)C4CC4)ncc3C(=O)OC)nn2C)c1OC)C(F)(F)F` [Example 50A, Methyl (R)-6-(cyclopropanecarboxamido)-4-((4-methoxy-1-methyl-5-(2,2,2-trifluoro-1-(methoxy-d3)ethyl)-1H-indazol-3-yl)amino)nicotinate], the pIC50 in assay [1] (setting [2]) is 6.88; at JAK1-JH2 domain (setting [3]), below 6.53; on TYK2-JH2 domain (setting [4]), 8.98. The JAK1/TYK2 selectivity on TYK2-JH2 domain (setting [5]) was above 287.30.

For the compound `[2H]C([2H])([2H])NC(=O)c1nnc(NC(=O)C2CC2)cc1Nc1nn(C)c2ccc([C@@H](OC)C(F)(F)F)c(OC)c12` [Example 51A, (R)-6-(cyclopropanecarboxamido)-4-((4-methoxy-1-methyl-5-(2,2,2-trifluoro-1-methoxyethyl)-1H-indazol-3-yl)amino)-N-(methyl-d3)pyridazine-3-carboxamide], the pIC50 is 7.91 in assay [1] (setting [2]), 8.20 at JAK1-JH2 domain (setting [3]) and 9.81 on TYK2-JH2 domain (setting [4]). Also, the JAK1/TYK2 selectivity at TYK2-JH2 domain (setting [5]) is given as 40.84.
